The structures appear in SMILES notation.

The test system of the experiment is proliferating neural precursor cells in the hippocampus (subgranular layer of the dentate gyrus). Kind of experiment: standard in vivo hippocampal neurogenesis assay (BrdU labelling, week-long intracranial mini-pump infusion). As to conditions: 10 μM concentration, seven days of infusion at 0.5 μL/hour, daily IP BrdU; four 12 week old adult male C57/B6 mice; vehicle 14.5. Set-up: species or system mouse (C57/B6). The procedure:
Compounds were administered at a concentration of 10 μM for each molecule. After seven days of infusion at a constant rate of 0.5 μL/hour, a total of 84 μL of volume will have left the pump (0.00084 μMoles) and entered the cerebrospinal fluid. The average volume of a brain from a 12 week old male, C57/B6 mouse in the study is 500 mm^3. […] Under these conditions, at the end of one week of infusion each compound would be present at 1.7 μMolar concentration. Since the actual amount of chemical compound in the brain is likely to be only a fraction of this predicted level, it is reasonable to estimate that compounds were administered at mid to low-nanomolar concentrations.
During compound infusion, animals were intraperitoneally (IP) injected daily with the thymidine analog, bromodeoxyuridine (BrdU), as a means of scoring the birth and survival of proliferating neural precursor cells in the hippocampus. Because both social interaction and voluntary exercise are known to stimulate hippocampal neurogenesis, mice were housed individually without access to running wheels throughout the screening period. Following the week-long period of compound administration, animals were perfused and sacrificed. Dissected brain tissue was fixed, embedded, sectioned, stained with antibodies to BrdU, and evaluated by light microcopy as a means of quantifying neurogenesis and survival of newborn neural precursor cells localized to the subgranular layer of the dentate gyms on the brain hemisphere contralateral to the side of mini-pump cannulation. Every fifth section throughout the entire rostral-caudal extent of the hippocampus was analyzed, and the total number of BrdU+ cells was normalized against the measured volume of the dentate gyms.
Intracranial infusions of either fibroblast growth factor 2 (FGF-2) or artificial cerebral spinal fluid (aCSF) vehicle via the same, week-long protocol were employed as positive and negative controls.
Compounds were evaluated for pro-neurogenic efficacy/neuroprotection in a standard in vivo hippocampal neurogenesis assay at 10 μM concentration in four 12 week old adult male C57/B16 mice.
A general note: Dividing cells build labelled thymidine or BrdU into new DNA.
Regarding `NC(Cc1c[nH]c2ccc(Br)cc12)C(=O)O` (racemic) [P7C3-S207, 5-bromo-DL-tryptophan, reference compound], the “(×10^−06) BrdU+ cells/mm^3 dentate gyrus” value is reported as 32.4 (×10^−06) BrdU+ cells/mm^3. The value for `COc1cccc(NCC(O)CN2c3ccc(Br)cc3CCc3cc(Br)ccc32)c1` (stereo not shown) [P7C3-S76] was 28.3 (×10^−06) BrdU+ cells/mm^3; that for `OC(CN1c2ccccc2CCc2ccccc21)Cn1ccc2ccccc21` (stereo not shown) [P7C3-S132, 1-(10,11-dihydro-5H-dibenzo[b,f]azepin-5-yl)-3-(1H-indol-1-yl)propan-2-ol] was 22.8 (×10^−06) BrdU+ cells/mm^3; that for `OC(CN1c2ccccc2CCc2ccccc21)Cn1c2ccccc2c2ccccc21` (stereo not shown) [P7C3-S133, 1-(9H-carbazol-9-yl)-3-(10,11-dihydro-5H-dibenzo[b,f]azepin-5-yl)propan-2-ol] was 20.2 (×10^−06) BrdU+ cells/mm^3.

Turning to `OC(CSc1ccccc1)CN1c2ccccc2CCc2ccccc21` (stereo not shown) [P7C3-S134, 1-(10,11-dihydro-5H-dibenzo[b,f]azepin-5-yl)-3-(phenylthio)propan-2-ol], the “(×10^−06) BrdU+ cells/mm^3 dentate gyrus” value is reported as 19.4 (×10^−06) BrdU+ cells/mm^3. Take `OC(COc1ccccc1)CN1c2ccccc2CCc2ccccc21` (stereo not shown) [P7C3-S135, 1-(10,11-dihydro-5H-dibenzo[b,f]azepin-5-yl)-3-phenoxypropan-2-ol]: the “(×10^−06) BrdU+ cells/mm^3 dentate gyrus” value is recorded as 14.2 (×10^−06) BrdU+ cells/mm^3. With `CN(C)CC(O)CN1c2ccccc2CCc2ccccc21` (stereo not shown) [P7C3-S139, 1-(10,11-dihydro-5H-dibenzo[b,f]azepin-5-yl)-3-(dimethylamino)propan-2-ol], the “(×10^−06) BrdU+ cells/mm^3 dentate gyrus” value is recorded as 24.9 (×10^−06) BrdU+ cells/mm^3. In the case of `NCC(O)CN1c2ccccc2CCc2ccccc21` (stereo not shown) [P7C3-S140, 1-amino-3-(10,11-dihydro-5H-dibenzo[b,f]azepin-5-yl)propan-2-ol] it was 23.4 (×10^−06) BrdU+ cells/mm^3. As to `CNCC(O)CN1c2ccccc2CCc2ccccc21` (stereo not shown) [P7C3-S143, 1-(10,11-dihydro-5H-dibenzo[b,f]azepin-5-yl)-3-(methylamino)propan-2-ol], the “(×10^−06) BrdU+ cells/mm^3 dentate gyrus” value is recorded as 14.5 (×10^−06) BrdU+ cells/mm^3. In the case of `CC(C)NCC(O)CN1c2ccccc2CCc2ccccc21` (stereo not shown) [P7C3-S144, 1-(10,11-dihydro-5H-dibenzo[b,f]azepin-5-yl)-3-(isopropylamino)propan-2-ol], the “(×10^−06) BrdU+ cells/mm^3 dentate gyrus” value is on record as 18.1 (×10^−06) BrdU+ cells/mm^3. In the case of `CC(C)(C)NCC(O)CN1c2ccccc2CCc2ccccc21` (stereo not shown) [P7C3-S145, 1-(tert-butylamino)-3-(10,11-dihydro-5H-dibenzo[b,f]azepin-5-yl)propan-2-ol] it was 25 (×10^−06) BrdU+ cells/mm^3; in that of `CN(C)CC(F)CN1c2ccccc2CCc2ccccc21` (stereo not shown) [P7C3-S148, 3-(10,11-dihydro-5H-dibenzo[b,f]azepin-5-yl)-2-fluoro-N,N-dimethylpropan-1-amine], 22.6 (×10^−06) BrdU+ cells/mm^3; in that of `CN(C)C(CF)CN1c2ccccc2CCc2ccccc21` (stereo not shown) [P7C3-S149, 1-(10,11-dihydro-5H-dibenzo[b,f]azepin-5-yl)-3-fluoro-N,N-dimethylpropan-2-amine], 23.2 (×10^−06) BrdU+ cells/mm^3. `CNCC(F)CN1c2ccccc2CCc2ccccc21` (stereo not shown) [P7C3-S152, 3-(10,11-dihydro-5H-dibenzo[b,f]azepin-5-yl)-2-fluoro-N-methylpropan-1-amine]: the “(×10^−06) BrdU+ cells/mm^3 dentate gyrus” value is given as 26.8 (×10^−06) BrdU+ cells/mm^3. In the case of `COc1cccc(NCC(O)CN2c3ccccc3CCc3ccccc32)c1` (stereo not shown) [P7C3-S158, 1-(10,11-dihydro-5H-dibenzo[b,f]azepin-5-yl)-3-((3-methoxyphenyl)amino)propan-2-ol] it was 25 (×10^−06) BrdU+ cells/mm^3.

On to `Brc1ccc2[nH]c3ccc(Br)cc3c2c1` [P7C3-S162, 3,6-dibromo-9H-carbazole], for which the “(×10^−06) BrdU+ cells/mm^3 dentate gyrus” value is reported as 25.2 (×10^−06) BrdU+ cells/mm^3. Turning to `Cn1c2ccc(Br)cc2c2cc(Br)ccc21` [P7C3-S163, 3,6-dibromo-9-methyl-9H-carbazole], the “(×10^−06) BrdU+ cells/mm^3 dentate gyrus” value is 24.2 (×10^−06) BrdU+ cells/mm^3. As to `CC(C)(O)Cn1c2ccc(Br)cc2c2cc(Br)ccc21` [P7C3-S169, 1-(3,6-dibromo-9H-carbazol-9-yl)-2-methylpropan-2-ol], the “(×10^−06) BrdU+ cells/mm^3 dentate gyrus” value is on record as 18.4 (×10^−06) BrdU+ cells/mm^3. In the case of `OC(CN1c2ccccc2CCc2ccccc21)CN1c2ccccc2CCc2ccccc21` [P7C3-S170, 1,3-bis(10,11-dihydro-5H-dibenzo[b,f]azepin-5-yl)propan-2-ol] it was 22.4 (×10^−06) BrdU+ cells/mm^3; in that of `OCCn1c2ccc(Br)cc2c2cc(Br)ccc21` [P7C3-S171, 2-(3,6-dibromo-9H-carbazol-9-yl)ethanol], 26.2 (×10^−06) BrdU+ cells/mm^3; in that of `OC(CNc1cccc2ccccc12)Cn1c(-c2ccccc2)cc2ccccc21` (stereo not shown) [P7C3-S185, 1-(naphthalen-1-ylamino)-3-(2-phenyl-1H-indol-1-yl)propan-2-ol], 25.1 (×10^−06) BrdU+ cells/mm^3.

On to `[N-]=[N+]=NCC(F)Cn1c2ccc(Br)cc2c2cc(Br)ccc21` (stereo not shown) [P7C3-S189, 9-(3-azido-2-fluoropropyl)-3,6-dibromo-9H-carbazole], for which the “(×10^−06) BrdU+ cells/mm^3 dentate gyrus” value was 13.7 (×10^−06) BrdU+ cells/mm^3. The value for `COc1ccc2[nH]cc(CCNC(C)=O)c2c1` [P7C3-S193, Melatonin, reference compound] was 15.6 (×10^−06) BrdU+ cells/mm^3.

Consider `CCOC(=O)C1=C[C@]2(CC)CCCN3CCc4c(n1c1ccccc41)[C@@H]32` [P7C3-S199, Vinpocetine, reference compound], for which the “(×10^−06) BrdU+ cells/mm^3 dentate gyrus” value is 26.5 (×10^−06) BrdU+ cells/mm^3. In the case of `CCC(C)N(C)C(=O)c1cc2ccccc2c(-c2ccccc2Cl)n1` (stereo not shown) [P7C3-S200, PK 11195, reference compound] it was 22.1 (×10^−06) BrdU+ cells/mm^3; in that of `CCCCCCN(CCCCCC)C(=O)Cc1c(-c2ccc(F)cc2)[nH]c2ccccc12` [P7C3-S201, N,N-Dihexyl-2-(4-fluorophenyl)indole-3-acetamide, reference compound], 24.8 (×10^−06) BrdU+ cells/mm^3; in that of `CN1C(=O)CN=C(c2ccc(Cl)cc2)c2cc(Cl)ccc21` [P7C3-S203, 4′-chlorodiazepam, reference compound], 21.5 (×10^−06) BrdU+ cells/mm^3. The value for `O=C(O)c1cc2c(cn1)[nH]c1ccc(Br)cc12` [P7C3-S206, 6-bromo-9H-pyrido[3,4-b]indole-3-carboxylic acid] was 29.6 (×10^−06) BrdU+ cells/mm^3. In the case of `COc1ccc2[nH]c3ccc(Br)cc3c2c1` [P7C3-S209, 3-bromo-6-methoxy-9H-carbazole] it was 30 (×10^−06) BrdU+ cells/mm^3; in that of `O=C(O)CN1c2ccccc2CCc2ccccc21` [P7C3-S210, 2-(10,11-dihydro-5H-dibenzo[b,f]azepin-5-yl)acetic acid], 21.4 (×10^−06) BrdU+ cells/mm^3; in that of `CC(C(=O)O)n1c2ccc(Br)cc2c2cc(Br)ccc21` (stereo not shown) [P7C3-S211, 2-(3,6-dibromo-9H-carbazol-9-yl)propanoic acid], 23 (×10^−06) BrdU+ cells/mm^3.
